Measurements: US20080268069A1, “Mixture having effect of improving insulin resistance, effect of suppressing body weight gain, and effect of preventing and improving fatty liver” (Ryusendo Co., Ltd., priority 2007, published 2008)
Entries after “also recorded” stand apart in the source; their conditions may differ.

How the values were obtained:
Assay type in all cases: in vivo
[1] = tested on: Zucker fa/fa rat; assay: 28-day feeding study: dietary intake, body weight gain, organ weights; settings: compared to V group; for suppression of body weight gain: feeding period of 28 days
Protocol: (§1) The Zucker fa/fa rat is polyphagous and used as an obesity model and also as a hyperinsulinemia or insulin resistance model.
Eight-week old Zucker fa/fa (Obesity model)
Vehicle (V) fa/fa Basic diet
Onion (O) fa/fa Basic diet+5% Onion
(§2) Dietary intake, body weight gain, liver weight, kidney weight, peritesticular fat weight, glucose tolerance test, blood glucose level, serum insulin, total serum cholesterol, serum triglyceride, serum free fatty acid, and serum leptin.
(§3) Significant tests were carried out using the t test. Two-tailed tests were used for the V group, with significance expressed at p<0.05 (*) and p<0.01 (**).

[2] = tested on: Zucker fa/fa rat; assay: Glucose tolerance test
Protocol: as §1, §3
Glucose tolerance tests were carried out in each group of rats at the 2nd week (9-week old) and 4th (11-week old) week after the start of experiment. After 16 hours of fasting, each group of rats was forcedly allowed to ingest 2 g/kg body weight of D-glucose, followed by measuring blood glucose level with time.

[3] = tested on: Zucker fa/fa rat; assay: Serum parameters and blood glucose level at autopsy; settings: compared to V group
Protocol: as §1, §2, §3
At autopsy, serum insulin and blood glucose level were measured.

For “trivalent chromium-nicotinic acid complex [Cr]”, the weight of kidney ([1]; 28 days feeding) was “no significant difference”, the “weight of peritesticular fat” value ([1]; 28 days feeding) was “no significant difference” and the “suppression of body weight gain” value [1] was “no significant difference”. The “suppression of body weight gain” value ([1]; listed as trivalent chromium-nicotinic acid complex) was “neither the trivalent chromium-nicotinic acid complex alone nor the onion extract alone had the effect”, the “blood glucose level in glucose tolerance test” value ([2]; 2nd and 4th week, after 2 g/kg D-glucose, no time point stated, compared to V group) was “no significant difference” and the “effect of improving insulin resistance” value ([2]; conclusion from glucose tolerance test and serum insulin, 2 to 4 weeks) was “neither the trivalent chromium-nicotinic acid complex alone nor the onion extract alone had the effect”. The blood glucose level ([3]; at autopsy) was “no significant difference”, the serum insulin content ([3]; at autopsy) was “no significant difference” and the “serum free fatty acid (FFA)” value [3] was “No significant difference”. The serum leptin [3] was “No significant difference”, the “serum triglyceride (TG)” value [3] was “no significant difference; also recorded: tendency of reduction” and the “total serum cholesterol (TC)” value [3] was “No significant difference”.
